Assay results as given in US20070027118A1 (priority 2005, published 2007).

What was measured:
11β-hsd-1 enzyme [1] = biological target: T1, 11β-hsd-1 enzyme (Homo sapiens, UniProt P28845); assay: biochemical; conditions: read-out: % Inh @ 0.1 mM; for inhibition at 100 µM: Table 2, inhibitor 0.1 mM as printed
Summary of the method: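 Human 11β-HSD-1 (5 nM) pre-incubated ≥30 min with inhibitor and 500 μM NADPH in triethanolamine buffer pH 8.0 with NaCl, n-dodecyl β-D-maltoside and β-ME; reaction started with G6P/G6PDH/MgCl2 regenerating system and 200 nM 3H-cortisone, run 60 min, stopped with DMSO. 3H-cortisol and substrate separated by radio-HPLC; percent inhibition from peak areas.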

11β-hsd-1 enzyme [2] = biological target: T1, 11β-hsd-1 enzyme; assay: biochemical
Summary of the method: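 Enzyme (5 nM) pre-incubated ≥30 min at RT with inhibitor and 500 μM NADPH in triethanolamine buffer pH 8.0; reaction started with glucose-6-phosphate regenerating system and 200 nM 3H-cortisone, stopped with DMSO after 60 min. Product quantified by radio-HPLC; Kiapp from Morrison tight-binding equation.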

T1 sequence (P28845 whole entry, species assumed): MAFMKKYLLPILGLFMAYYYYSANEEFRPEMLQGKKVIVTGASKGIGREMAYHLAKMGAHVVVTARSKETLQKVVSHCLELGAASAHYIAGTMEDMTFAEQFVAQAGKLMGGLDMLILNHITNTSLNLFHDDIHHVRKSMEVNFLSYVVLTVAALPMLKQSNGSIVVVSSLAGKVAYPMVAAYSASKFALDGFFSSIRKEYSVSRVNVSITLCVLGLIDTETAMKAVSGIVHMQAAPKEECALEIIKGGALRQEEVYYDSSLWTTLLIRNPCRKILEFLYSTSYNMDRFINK

Row | Structure (SMILES) | inhibition (11β-hsd-1 enzyme [1]) | Ki (11β-hsd-1 enzyme [2]) | inhibition at 100 µM (11β-hsd-1 enzyme [1])
1 | O=S(=O)(Nc1ccc2ccccc2n1)N1CCCN(c2nc3cc(Cl)ccc3o2)CC1 [Example 180, 4-(5-chloro-13-benzoxazol-2-yl)-N-quinolin-2-yl-14-diazepane-1-sulfonamide] | 100% | 0.02 µM | –
2 | CCc1cccc(NS(=O)(=O)N2CCc3conc3CC2)n1 [Example 181, N-(6-ethylpyridin-2-yl)-4578-tetrahydro-6H-isoxazolo[34-d]azepine-6-sulfonamide] | 83.4% | 0.096 µM | –
3 | CCc1cccc(NS(=O)(=O)N2CCN(c3cccc(OC)n3)CC2)n1 [Example 183, N-(6-ethylpyridin-2-yl)-4-(6-methoxypyridin-2-yl)piperazine-1-sulfonamide] | – | 0.0115 µM | 100%
4 | CCc1cccc(NS(=O)(=O)N2CCN(c3nc4ccc(Cl)cc4o3)CC2)n1 [Example 186, 4-(6-chloro-13-benzoxazol-2-yl)-N-(6-ethylpyridin-2-yl)piperazine-1-sulfonamide] | – | 0.0089 µM | 100%
5 | CCc1cccc(NS(=O)(=O)N2CCCN(c3ncccc3C#N)CC2)n1 [Example 187, 4-(3-cyanopyridin-2-yl)-N-(6-ethylpyridin-2-yl)-14-diazepane-1-sulfonamide] | 68.8% | 0.16 µM | –
6 | CCc1cccc(NS(=O)(=O)N2CCc3c(Cl)cccc3C2)n1 [Example 190, 5-chloro-N-(6-ethylpyridin-2-yl)-34-dihydroisoquinoline-2(1H)-sulfonamide] | 100% | 0.001 µM | –
7 | CCc1cccc(NS(=O)(=O)N2CCN(c3ncccn3)CC2)n1 [Example 191, N-(6-ethylpyridin-2-yl)-4-pyrimidin-2-ylpiperazine-1-sulfonamide] | 90.5% | 0.12 µM | –
8 | CCc1cccc(NS(=O)(=O)N2CCCCCCC2)n1 [Example 193, N-(6-ethylpyridin-2-yl)azocane-1-sulfonamide] | 92.5% | 0.0077 µM | –
9 | CCc1cccc(NS(=O)(=O)N2CCN(c3ccccn3)CC2)n1 [Example 194, N-(6-ethylpyridin-2-yl)-4-pyridin-2-ylpiperazine-1-sulfonamide] | – | 0.037 µM | 81.4%
10 | CCc1cccc(NS(=O)(=O)N2CCN(c3ncc(C(F)(F)F)cc3Cl)CC2)n1 [Example 195, 4-[3-chloro-5-(trifluoromethyl)pyridin-2-yl]-N-(6-ethylpyridin-2-yl)piperazine-1-sulfonamide] | 92.3% | 0.029 µM | –
11 | CCOC(=O)N1CCN(S(=O)(=O)Nc2cccc(CC)n2)CC1 [Example 196, ethyl 4-{[(6-ethylpyridin-2-yl)amino]sulfonyl}piperazine-1-carboxylate] | 85.8% | 0.02 µM | –
12 | CCc1cccc(NS(=O)(=O)N2CCCCCC2)n1 [Example 197, N-(6-ethylpyridin-2-yl)azepane-1-sulfonamide] | 79.5% | 0.035 µM | –
13 | CCc1cccc(NS(=O)(=O)N2CCN(c3ncccc3C(F)(F)F)CC2)n1 [Example 198, N-(6-ethylpyridin-2-yl)-4-[3-(trifluoromethyl)pyridin-2-yl]piperazine-1-sulfonamide] | 69.1% | 0.071 µM | –
14 | CCc1cccc(NS(=O)(=O)N2CCCN(Cc3ccc(F)cc3)CC2)n1 [Example 200, N-(6-ethylpyridin-2-yl)-4-(4-fluorobenzyl)-14-diazepane-1-sulfonamide] | 96.8% | 0.02 µM | –
15 | CCc1cccc(NS(=O)(=O)N2CCN(c3ncccc3C#N)CC2)n1 [Example 201, 4-(3-cyanopyridin-2-yl)-N-(6-ethylpyridin-2-yl)piperazine-1-sulfonamide] | 83.9% | 0.033 µM | –
